Like-named read-outs stand apart in the source and are kept apart here.
Tests used:
cell line Hela = test: MTT proliferation inhibition, Hela; assay type: cell-based; details: Homo sapiens, 48 h
Description: (§1) Human leukemia cell line K562, clear-cell ovarian carcinoma cell line ES-2, human prostate cancer cell line PC-3, human breast cancer cell line MCF-7, cell line Hela, human liver cancer cell line H7402 and human ovarian cancer cell line 3-AO were transferred into a culture flask and were cultured in a medium at 37° C. in a 5% CO2 and saturation humidity. One bottle of cells in logarithmic growth phase was picked out and was blew and beaten to be uniform with a pipette, then took some cell suspension solution to prepare blood counting plate smear to count cells under inverted microscope, and then adjusted the cell number to be 1×10^5/mL by adding some culture medium. Cells were seeded on a 96-well plate on which also drug tests performed. Blank control group, negative control group, positive control group and drug test group were established on the plate while the surrounding wells of the plate were not used (but filled with sterile PBS), wherein the blank control groups were prepared by addition of culture medium 150 μL per well, the negative control groups were prepared by addition of cell suspension solution 100 μL per well and culture medium 50 μL per well, the positive control groups were prepared by addition of cell suspension solution 100 μL per well and positive control drug solution 50 μL per well, the drug test groups were prepared by addition of cell suspension solution 100 μL per well and test compound solution 50 μL per well, and there were 5 different concentrations of drug in the positive control group and the drug test group respectively: 0.01, 0.1, 1, 10, 100 μmol·L^−1, each concentration was established with 3 parallel wells. After the drug was added, the 96-well plate was incubated for 48 h at 37° C. in a CO2 incubator of 5% CO2 and saturation humidity. Upon completion of the incubation, 20 μL MTT solution (concentration was 5 mg/mL) was added to each well and incubated for an additional 4 h, and after the 96-well plate was centrifuged at 2000 rpm for 30 min, medium of each well was suck out carefully and removed and 100 μL DMSO was added instead, followed by vibrating on a tablet shaker for 15 min to re-dissolve formazan crystals completely. OD value of each well was measured at 570 nm wavelength using an enzyme-linked immunosorbent assay reader to calculate cellular proliferation inhibitory ratio of each drug in different concentrations. And half-inhibitory concentration (IC50) was calculated using statistical software SPSS 16.0, wherein the cellular proliferation inhibitory ratio can be calculated as following equation: […]

H22 tumor cells [1] = details: Kunming, mouse, in vivo, 14 days
Description: (§2) The ascites was extracted from H22 tumour bearing mice with well growth, followed by adding sterile PBS to dilute the ascites to a concentration of 8.5×10^7 cells/mL. 100 uL of the cells solution was suck up by a 1 mL sterile injector to inoculate into right oxter of mice. After 3 days, the mice were weighted and randomized to several groups (almost 8 mice per group, and a bit more in control group). These mice were administrated a predetermined dosage by intravenous or oral gavage with two days off when having administrated for 5 days until two cycles one of which had 7 days. The body weight of mouse was recorded at the beginning and ending of every cycle,
(§3) After being administrated for two cycles, the mice were weighted and recorded, then sacrificed by cervical dislocation to get lung, liver and spleen weighted respectively.
(§4) Overall difference was calculated by the function of one-way analysis of variance (One-Way ANOVA) in Origin 7.5 software; and t-test was used for pair-comparison between drug administrated group and blank group, and the inhibitory ratio of drug in each group was calculated based on the following equation: inhibitory ratio (100%)=(mean tumor weight of control group−mean tumor weight of drug administrated group)/mean tumor weight of control group×100.

[2] = system: human ovarian cancer cell line 3-AO; test: MTT proliferation inhibition, 3-AO; assay type: cell-based; details: Homo sapiens, 48 h
Description: as §1

[3] = system: human liver cancer cell line H7402; test: MTT proliferation inhibition, H7402; assay type: cell-based; details: Homo sapiens, H7402, 48 h
Description: as §1

[4] = system: human breast cancer cell line MCF-7; test: MTT proliferation inhibition, MCF-7; assay type: cell-based; details: Homo sapiens, MCF7, 48 h
Description: as §1

H22 tumor cells [5] = test: Activities of compounds in H22 tumor cells bearing Kunming mice models (Example 34); details: for Tumor growth inhibition (%) / Tumor weight: after two cycles
Description: as §2, §3, §4

[6] = system: human leukemia cell line K562; test: MTT proliferation inhibition, K562; assay type: cell-based; details: Homo sapiens, K562, 48 h
Description: as §1

liver cancer H22 [7] = test: Inhibition assay of intravenous administration against liver cancer H22 (Example 33)
Description: Extracted the ascites from H22 ascites tumour bearing mice, washed the ascites with sterile PBS for three times and then resuspended the cells with sterile PBS (cells counts: 3.75×10^7 cells/mL), inoculated it into right oxter of Kunming mice 100 uL per mouse.
The H22 tumor-bearing mice were randomized to 4 groups (7 mice per group) after being weighted. […] The size of tumor was measured by using a vernier calliper and weight of mouse by using an electronic balance at the beginning and ending of every cycle, then calculated their mean value. The mice were sacrificed after 13 days and the tumors were taken out and weighted. Tumor volume and inhibitory ratio were calculated as the following equation (L and W referred to length and width of tumor respectively): […]

[8] = system: human prostate cancer cell line PC-3; test: MTT proliferation inhibition, PC-3; assay type: cell-based; details: Homo sapiens, 48 h
Description: as §1

liver cancer H22 [9] = test: Inhibition assay of oral administration against liver cancer H22 (Example 33); assay type: in vivo, Kunming mice; details: oral gavage, sacrificed after 13 days; for Tumor weight: two cycles (5 days on, 2 off); for inhibitory ratio (%): two cycles
Description: (1) the negative control: PBS; (2) Xeloda group: 100 mg/kg/d; (3) TFU group: 70 mg/kg/d; (4) BC-01 group: 100 mg/kg/d.
[formula] [formula] [formula] 2.2: Inhibition Assay of Intravenous Administration Against Liver Cancer H22

[10] = intravenous injection, 20 mg/kg/d (0.15 mmol/kg/d)
[11] = mouse, in vivo, iv, 20 mg/kg/day
[12] = tail intravenous injection, 20 mg/kg/d, sacrificed after 13 days
[13] = oral gavage, 108 mg/kg/d (0.3 mmol/kg/d)

Oc1ncc(F)c(O)n1 [Compound 5-FU, 2,4-dihydroxy-5-fluoropyrimidine, reference compound]
EC50 (cell line Hela): 133 µM
Number of mice alive (H22 tumor cells [1]; iv, 20 mg/kg/day): 4
EC50 [2]: 60.8 µM
EC50 [3]: 385 µM
EC50 [4]: 76.9 µM
Tumor growth inhibition (%) (H22 tumor cells [5]; [10]): 10.41%
Tumor weight (H22 tumor cells [5]; [10]): 0.54 ± 0.06 g
Body weight(g) Beginning (H22 tumor cells [5]; [10]): 26.89 ± 2.06 g
Body weight(g) Ending (H22 tumor cells [5]; [10]): 25.51 ± 4.50 g
EC50 [6]: 16 µM
Number of mice alive (liver cancer H22 [7]; Kunming, mouse, in vivo, iv, 20 mg/kg/day, 13 days): 7
Body weight(g) Beginning (liver cancer H22 [7]; [11]): 31.37 ± 4.05 g
Body weight(g) Ending (liver cancer H22 [7]; [11]): 31.92 ± 4.98 g
Tumor weight (liver cancer H22 [7]; [12]): 0.84 ± 0.19 g
inhibitory ratio (%) (liver cancer H22 [7]; [12]): 38.83%
EC50 [8]: 15.7 µM

O=c1[nH]c(=O)n(C2CCCO2)cc1F (stereo not shown) [TFU]
Tumor weight (liver cancer H22 [9]; 70 mg/kg/d): 0.68 g
inhibitory ratio (%) (liver cancer H22 [9]; 70 mg/kg/d): 13.38%

CCCCCOC(=O)Nc1nc(=O)n([C@@H]2O[C@H](C)[C@@H](O)[C@H]2O)cc1F [Xeloda, capecitabine, reference compound]
Tumor weight (liver cancer H22 [9]; 100 mg/kg/d): 0.6 g
inhibitory ratio (%) (liver cancer H22 [9]; 100 mg/kg/d): 24.53%
Number of mice alive (H22 tumor cells [1]; po, 108 mg/kg/day): 7
Tumor growth inhibition (%) (H22 tumor cells [5]; [13]): 40.95%
Tumor weight (H22 tumor cells [5]; [13]): 0.35 ± 0.09 g
Body weight(g) Beginning (H22 tumor cells [5]; [13]): 33.00 ± 1.81 g
Body weight(g) Ending (H22 tumor cells [5]; [13]): 31.42 ± 3.56 g
